Legend:
Type in all cases: in vivo, human
[1] = Placebo-controlled, randomized Phase 2a study in patients with NASH (CLIK066X2204, NCT03205150), interim analysis; details: for patients reporting diarrhea (most common adverse event): 12 weeks, placebo 38.9%
Method: Method: Patients with histologically confirmed NASH (F1-F3) or phenotypic NASH (BMI≥27 kg/m^2 in non-Asians or ≥23 kg/m^2 in Asians, ALT≥50 (males) or ≥35 (females) and type 2 diabetes (T2DM)) received daily oral licogliflozin at 150 mg, 30 mg or placebo in a 2:2:1 ratio for 12 weeks (NCT03205150). The primary endpoint is the effect on ALT level after 12 weeks of treatment. Secondary endpoints include improvement in body weight, liver fat content and AST, amongst others. The study size is 110 of which 77 have completed (placebo (n=18); licogliflozin 30 mg (n=25) and licogliflozin 150 mg (n=34)) and are included in the interim analysis.

[2] = Randomized, double-blind, placebo controlled dose finding study in Japanese patients with obesity disease
Method: This study was a randomized, double-blind, placebo controlled, dose finding study to evaluate the effect of licogliflozin (2.5, 10, 25 and 50 mg qd) in 126 Japanese patients with obesity disease. The primary objective was to examine the dose-response relationship of licogliflozin treatment in body weight reduction relative to placebo at 12 weeks. The secondary objectives included assessment of responder rates, change in parameters related to complications, visceral and subcutaneous fat area, and safety through 12 weeks of treatment.

[3] = Phase 2 dose range finding study in obese patients (CLIK066B2201); details: 30 mg QD; expected
Method: A dose of 30 mg QD is expected to achieve approximately 70% of maximum observed efficacy (using weight loss as a downstream marker for efficacy; CLIK066B2201). Licogliflozin is currently being tested as 30 mg and 150 mg QD monotherapy in NASH (CLIK066X2204). […] To minimize the risk of GI adverse effects of the SGLT1 inhibition in the gut such as diarrhea, licogliflozin will administered in the evening.

CCc1ccc([C@@H]2O[C@H](CO)[C@@H](O)[C@H](O)[C@H]2O)cc1Cc1ccc2c(c1)OCCO2 [licogliflozin, (2S,3R,4R,5S,6R)-2-(3-((2,3-dihydrobenzo[b][1,4]dioxin-6-yl)methyl)-4-ethylphenyl)-6-(hydroxymethyl)tetrahydro-2H-pyran-3,4,5-triol]
patients reporting diarrhea (most common adverse event) ([1]; 30 mg): 40%
reduction of ALT and liver fat (interim analysis) ([1]; 150 mg QD treatment group): promising reduction
incidence of gastrointestinal events (mainly diarrhea) ([1]; 150 mg QD treatment group, interim analysis): significant incidence
patients reporting diarrhea (most common adverse event) ([1]; 150 mg): 76.5%
safety and tolerability ([2]; 2.5, 10, 25 and 50 mg qd over 12 weeks): safe and well tolerated
ketoacidosis ([2]; 2.5, 10, 25 and 50 mg qd, 12 weeks): no ketoacidosis
patients who achieved reduction of ≥3% in body weight ([2]; 10, 25 and 50 mg qd dose groups, placebo 7.1%, p≤0.002 for all): ≥ 50%
share of maximum observed efficacy (weight loss as downstream marker) [3]: approximately 70%

Reference: patent US20220257626A1, “TREATMENT COMPRISING SGLT INHIBITORS” (Novartis AG, priority 2019, published 2022)
